According to patent US20220193072A1, “METHODS OF TREATING BREAST CANCER WITH TETRAHYDRONAPHTHALENE DERIVATIVES AS ESTROGEN RECEPTOR DEGRADER” (Arvinas Operations, Inc., priority 2020, published 2022):
Values belong to the compound of their own block, whether it stands above or below them.

Experiments:
MCF7 cells [1] = experiment: Luminescence-based MCF7 cell proliferation assay, dose-response matrix; conditions: 5 days (120 hours)
Protocol: MCF7 cells were seeded at a density of 2×10^4 cells in 200 μL of media per well in 2 technical replicate, 96-well black, clear-bottom plates and incubated overnight at 37° C. in a 5% CO2 incubator. […] DMSO was used as the vehicle control. The plates were then incubated for 5 days at 37° C. in a 5% CO2 incubator.
The plates were equilibrated to room temperature for approximately 30 minutes. 50 μL of Cell-Titer Glo (Promega) was added to all wells of the plates, covered with aluminum foil and shaken gently by hand for less than 1 minute. The plates were then incubated for 10 minutes at room temperature. Luminescence was recorded using Envision Multi Label Reader. To assess cell viability, luminescence values for drug-treated wells were normalized to average luminescence of vehicle (DMSO) wells to obtain percent viability relative to control cells. The data were analyzed with the Combenefit software.

MCF7 cells [2] = experiment: Live-cell imaging growth studies and EC50 for growth inhibition, MCF7; format: cell-based; conditions: Homo sapiens, read-out: Approximate Half-maximal Effective Concentration (EC50) for growth inhibition
Protocol: (§1) MCF7, T47D, T47D ESR1 Y537S or T47D ESR1 D538G cells were seeded at 2×10^5 density per well in 6-well tissue culture-treated plates in DMEM/F12/10% FBS (2 mL total volume). […] The plate was then placed in the Incucyte® S3 Live-Cell Analysis System and images were acquired every 4 hours for a total of 5 days (120 hours). Data were analyzed using the Incucyte® Software v2020C which quantified cell surface area coverage as confluence values. Relative growth was calculated for all timepoints for all growth conditions relative to the confluence value observed for the control at 120 hours. Graphing and statistical analyses were performed using Graphpad Prism (GraphPad Software).

T47D cells = experiment: Live-cell imaging growth studies and EC50 for growth inhibition, T47D; format: cell-based; conditions: Homo sapiens, read-out: Approximate Half-maximal Effective Concentration (EC50) for growth inhibition
Protocol: as §1

[3] = system: tamoxifen-resistant MCF7 xenografts; experiment: Tamoxifen-resistant MCF7 orthotopic xenograft tumor growth inhibition; format: in vivo, Nu/Nu mice
Protocol: Species: Ovariectomized Nu/Nu female mice. Animal handling: Axial mammary fat pad implantation of tamoxifen-resistant tumor fragment (from E45 passage. SC per mouse. Tamoxifen pellet (5 mg, 60-day release) was implanted under the same anesthesia as tumor fragment (pellet—dorsal; tumor—ventral).
Dosing: Oral (gavage), once a day for 28 days (QD×28)
(§2) Sampling: Tumors were measured twice weekly. Terminal sacrifice was ˜18 hr after last dose; tumors were harvested, divided, and flash frozen. ERα levels were determined by immunoblotting (see Appendix 1 for details).

ERα = target: T1, ERα (Homo sapiens, UniProt P03372); experiment: ERα levels in tamoxifen-resistant MCF7 xenografts (immunoblot); format: in vivo, Nu/Nu mice; conditions: tamoxifen-resistant MCF7, palbociclib alone 60 mg/kg
T1 construct: robustly degrades ER in ER-positive breast cancer cell lines; endogenous in cells; host or cells: MCF7, T47D (cell culture); MCF7 and tamoxifen-resistant MCF7 xenograft tumours in mice
T1 sequence (P03372 1-595): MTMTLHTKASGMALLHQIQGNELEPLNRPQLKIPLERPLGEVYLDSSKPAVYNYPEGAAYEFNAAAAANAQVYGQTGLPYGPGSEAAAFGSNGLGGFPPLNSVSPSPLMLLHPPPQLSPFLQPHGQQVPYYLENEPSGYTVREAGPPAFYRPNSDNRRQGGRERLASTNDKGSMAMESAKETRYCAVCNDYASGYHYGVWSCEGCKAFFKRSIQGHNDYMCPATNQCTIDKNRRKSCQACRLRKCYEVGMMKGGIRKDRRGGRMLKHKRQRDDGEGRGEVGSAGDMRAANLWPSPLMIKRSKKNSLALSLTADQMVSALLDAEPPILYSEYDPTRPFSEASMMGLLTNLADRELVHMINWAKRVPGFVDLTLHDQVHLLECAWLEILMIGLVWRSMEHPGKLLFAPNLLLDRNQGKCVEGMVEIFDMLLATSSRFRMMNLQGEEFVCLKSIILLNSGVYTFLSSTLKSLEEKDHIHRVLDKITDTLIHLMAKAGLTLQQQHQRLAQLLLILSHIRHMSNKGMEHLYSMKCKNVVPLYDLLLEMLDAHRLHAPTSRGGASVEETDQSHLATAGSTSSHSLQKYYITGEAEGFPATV
Protocol: At study termination, the tumors were removed from the mice, and ERα levels were determined by immunoblotting the tumor homogenates. […] ERα levels from the various compound arms were compared to vehicle-treated animals by analyzing the tumor lysates on separate immunoblots (graphs in FIG. 10, FIG. 11, and FIG. 12 depict data from individual immunoblots) and the average ERα levels with standard deviation is shown.
as §2
Flash frozen tumors were removed from −80° C. storage and placed on dry ice. RIPA lysis buffer and Halt protease inhibitors were used at 400 μl per tumor sample. A steel ball (5 mm) was placed in each sample for tissue disruption. Samples were lysed with TissueLyzer at 24 Hz for 4 minutes. The homogenization was stopped half way through the process and the block flipped over for the duration of the process. […] Lysates were then measured for total protein concentration by BCA (per manufacturer's protocol). […]
Protein was transferred from gels to nitrocellulose with Bio-Rad Turbo on default setting. […] The blots were cut so that beta-actin and ERα can be detected from the same lane/sample. […]

MCF7 xenograft [4] = experiment: MCF7 orthotopic xenograft, combination with PI3K inhibitor alpelisib; format: in vivo, NOD/SCID mice
Protocol: (§3) NOD/SCID female mice (Charles River, 6-7 weeks old upon arrival) were implanted with 17b-estradiol 0.72 mg 90-day pellets. The next day, each mouse was implanted with 5×10^6 MCF7 cells/100 mL in the axial mammary fat pad. Compound administration was initiated once the tumors reached 175-200 mm^3. Diet was supplemented with peanut butter to help maintain body weights. Dosing holidays occurred on days 6, 7, 8 and 9 due to body weight loss in some animals in study arms 3 and 4. […] (FIG. 31 and Table 15).
Dosing holidays occurred on days 6, 7, 8 and 9. Error bars represent standard deviation.
(§4) The ratio of Tween 80 to PEG-400 is 0.02 g Tween 80 to 1 ml PEG-400. PEG-400 is added to a pre-aliquoted volume of Tween 80. • For alpelisib: 1% carboxymethylcellulose (CMC), 0.5% Tween 80/DI water (‘CMC/Tween’) Sampling: tumors were measured twice weekly. Terminal sacrifice was ˜18 hr after last dose. Tumor volume calculation: Tumor Volume=(width×width×length)/2, where all measurements are in mm and the tumor volume is in mm^3. Tumor Growth Inhibition (TGI) calculation: TGI (%)

T47D ESR1 Y537S cells = experiment: Live-cell imaging growth studies and EC50 for growth inhibition, T47D ESR1 Y537S; format: cell-based; conditions: Homo sapiens, read-out: Approximate Half-maximal Effective Concentration (EC50) for growth inhibition
Protocol: as §1

T47D ESR1 D538G cells = experiment: Live-cell imaging growth studies and EC50 for growth inhibition, T47D ESR1 D538G; format: cell-based; conditions: Homo sapiens; T47D ESR1 D537G (so in the source); read-out: Approximate Half-maximal Effective Concentration (EC50) for growth inhibition
Protocol: as §1

MCF7 xenograft [5] = experiment: MCF7 orthotopic xenograft, combination with mTOR inhibitor everolimus; format: in vivo, NOD/SCID mice
Protocol: as §3, with “[…] per” for “mL”, “weights.” for “weights. Dosing holidays occurred on days 6, 7, 8 and 9 due to body weight loss in some animals in study arms 3 and 4.”, “28” for “31”, “13).” for “15).”
Error bars represent standard deviation.
as §4, with “everolimus: 10% DMSO, 90% (2%” for “alpelisib: 1% carboxymethylcellulose (CMC), 0.5%”, “80, PEG 400) (DMSO/PEG/Tween)” for “80/DI water (‘CMC/Tween’)”

[6] = palbociclib 60 mg/kg oral QD x 28
[7] = alpelisib 25 mg/kg oral QD x 19
[8] = everolimus 2.5 mg/kg oral QD x 26

- EC50 (MCF7 cells [2]): 40 nM
- EC50 (T47D cells): 30 nM
SMILES: C[C@H](Nc1ccc2c(c1)OCCn1cc(N3C(=O)OC[C@H]3C(F)F)nc1-2)C(N)=O [GDC-0077]
- MCF7 cell proliferation, single agent (MCF7 cells [1]): dose-dependent decrease

- EC50 (MCF7 cells [2]): 10000 nM
SMILES: CC1(C)CCC(CN2CCN(c3ccc(C(=O)NS(=O)(=O)c4ccc(NCC5CCOCC5)c([N+](=O)[O-])c4)c(Oc4cnc5[nH]ccc5c4)c3)CC2)=C(c2ccc(Cl)cc2)C1 [Venetoclax]

- effect on tumor ERα levels (ERα): did not reduce
SMILES: CC(=O)c1c(C)c2cnc(Nc3ccc(N4CCNCC4)cn3)nc2n(C2CCCC2)c1=O [Palbociclib, 6-acetyl-8-cyclopentyl-5-methyl-2-{[5-(piperazin-1-yl)pyridin-2-yl]amino}pyrido[2,3-d]pyrimidin-7(8H)-one, reference compound]
- Day 28 Tumor volume (mean ± SD) [3, 6]: 222 ± 139 mm^3
- TGI (% vehicle) [3, 6]: 91 % vehicle
- tumor growth inhibition (TGI) ([3]; tamoxifen-resistant MCF7, palbociclib 60 mg/kg/day oral, 28 days): 91%

- EC50 (MCF7 cells [2]): 100 nM
- EC50 (T47D cells): 100 nM
SMILES: Cc1nc(NC(=O)N2CCC[C@H]2C(N)=O)sc1-c1ccnc(C(C)(C)C(F)(F)F)c1 [Alpelisib, reference compound]
- MCF7 cell proliferation, single agent (MCF7 cells [1]): dose-dependent decrease
- Day 19 Tumor Volume (mean ± SD) (MCF7 xenograft [4]; [7]): 281 ± 37 mm^3
- TGI (% vehicle) (MCF7 xenograft [4]; [7]): 74 % vehicle
- tumor growth inhibition (TGI) (MCF7 xenograft [4]; alpelisib 25 mg/kg oral once daily, 19 days, dosing holidays days 6-9): 74%

- EC50 (MCF7 cells [2]): 10 nM
- EC50 (T47D cells): 100 nM
- EC50 (T47D ESR1 Y537S cells): 10 nM
- EC50 (T47D ESR1 D538G cells): 10 nM
SMILES: CO[C@H]1C[C@@H]2CC[C@@H](C)[C@@](O)(O2)C(=O)C(=O)N2CCCC[C@H]2C(=O)O[C@H]([C@H](C)C[C@@H]2CC[C@@H](OCCO)[C@H](OC)C2)CC(=O)[C@H](C)/C=C(\C)[C@@H](O)[C@@H](OC)C(=O)[C@H](C)C[C@H](C)/C=C/C=C/C=C/1C [Everolimus, reference compound]
- MCF7 cell proliferation, single agent (MCF7 cells [1]): dose-dependent decrease
- Day 26 Tumor Volume (mean ± SD) (MCF7 xenograft [5]; [8]): 252 ± 50 mm^3
- TGI (% vehicle) (MCF7 xenograft [5]; [8]): 89 % vehicle
- tumor growth inhibition (TGI) (MCF7 xenograft [5]; everolimus 2.5 mg/kg oral once daily, 26 days): 89%

- EC50 (MCF7 cells [2]): 40 nM
SMILES: CCN1CCN(Cc2ccc(Nc3ncc(F)c(-c4cc(F)c5nc(C)n(C(C)C)c5c4)n3)nc2)CC1 [Abemaciclib]
